# Measurements taken from patent US20260174739A1 (priority 2022, published 2026).
# Where a name gives a salt, the structure may show the parent alone. Read-outs that look alike come from different tables or passages of the source.
# What was measured:
# human SERT = human SERT (Homo sapiens, UniProt P31645); assay: Inhibitory activity assay against 5-HT transporter (neurotransmitter transporter uptake assay kit); format: cell-based; settings: HEK-293 cells overexpressing human SERT; read-out: 5-HTT (IC50)
# Protocol: In HEK-293 cells overexpressing human SERT, the transporter inhibitory effect of the test compound on human SERT was assayed using a Neurotransmitter transporter uptake assay kit (Molecular devices).
# human DAT = human DAT (Homo sapiens, UniProt Q01959); assay: DAT transporter inhibitory activity test (neurotransmitter transporter uptake assay kit); format: cell-based
# Protocol: (§1) Transporter inhibition of human DAT and NET expressed in HEK-293 cells was assessed using a neurotransmitter transporter uptake assay kit. The assay was performed as described in the kit instructions, using centanafadine as a positive control. The specific procedures were as follows:
# DAT stably transfected culture: The DAT-HEK cell line was cultured in DMEM medium containing 10% fetal bovine serum and 0.2 mg/mL hygromycin B at 37° C. with 5% carbon dioxide.
# DAT stably transfected cell passage: the old medium was removed, and the cells were washed once with PBS; 1 mL of TrypLE™ Express solution was then added, and the cells were incubated at 37° C. for about 2 min. When the cells were detached from the bottom of the dish, about 5 mL of complete medium pre-heated at 37° C. was added. The cell suspension was gently pipetted to separate the aggregated cells. The cell suspension was transferred to a sterile centrifuge tube and centrifuged at 1000 rpm for 5 min. In order to maintain the physiological activity of the cells, the experimental cell confluence was controlled at about 80%.
# • a) After overnight transfection of NET cells, the cells were digested with trypsin, resuspended with DMEM+10% Dialyzed FBS medium, seeded into a 384-well plate at 20000 cells/well, and incubated overnight. […] After centrifuging, the plate was incubated at 37° C. for 30 min. • e) A detection reagent was prepared using 1×HBSS, and 16 μL of the detection reagent was added to each well. […] Curve fitting and IC50 calculation were performed using GraphPad Prism software nonlinear regression method.
# human NET = human NET (Homo sapiens, UniProt P23975); assay: NET transporter inhibitory activity test (neurotransmitter transporter uptake assay kit); format: cell-based
# Protocol: as §1
# First day cell plating: HEK 293T cells were digested with trypsin, centrifuged, resuspended with a medium, counted, and seeded into a 6 cm culture dish at a density of 3×10^6 cells/well.
# Second day cell transfection: HEK 293T cells were subjected to medium exchange, and then A, B tubes were prepared for NET-pcDNA5/FRT plasmid to be transfected. 200 μL of Opti-MEM was added to tube A, and 10 μL of Lipofectamine™ 3000 was added. The mixture was mixed well. 200 μL of Opti-MEM was added to tube B, and 5 μg of NET-pcDNA5/FRT plasmid was added. The mixture was mixed well, and then 10 μL of P3000™ was added to tube B. The mixture was mixed well (plasmid to transfection reagent ratio 1 μg:2 μL). The diluted solution of tube A was added to the diluted solution of tube B. The mixture was mixed well, and incubated at room temperature for 15 min. Finally, the mixture was gently added to the cells that had been subjected to medium exchange, gently shaken to mix, and then incubated overnight in an incubator at 37° C. with a carbon dioxide concentration of 5%. The cells were used for compound functional activity assays 18-20 h after transfection.
# • a) After overnight transfection of NET cells, the cells were digested with trypsin, resuspended with DMEM+10% Dialyzed FBS medium, seeded into a 384-well plate at 20000 cells/well, and incubated overnight. Stably transfected DAT cells were digested with trypsin, resuspended with DMEM+10% Dialyzed FBS medium, seeded into a 384-well plate at 2500 cells/well, and incubated overnight. • b) 1× Assay buffer was prepared according to the kit instruction for later use; the positive compound and the test compound were serially diluted with DMSO, and then diluted to 2× with 1× assay buffer. • c) The medium was removed from the 384-well plate by centrifugation. • d) 16 μL of the compound prepared in step b) was added to corresponding experimental wells, wherein an initial concentration of 2× positive control compound was added to the positive control well, and 0.2% DMSO buffer was added to the negative control well. After centrifuging, the plate was incubated at 37° C. for 30 min. • e) A detection reagent was prepared using 1×HBSS, and 16 μL of the detection reagent was added to each well. After centrifuging, the plate was incubated at 37° C. for 60 min. • f) After incubation, the reading at 510 nm under the excitation of the detection wavelength of 425 nm was measured using a microplate reader. Curve fitting and IC50 calculation were performed using GraphPad Prism software nonlinear regression method.
# [1] = Human liver microsome assay (metabolic stability); format: in vitro ADME; settings: pH 7.4, human liver microsomes 0.2 mg/mL, 1 μM test drug, NADPH, 37° C.
# Protocol: Control and reagent: NADPH, magnesium chloride, testosterone, phosphate buffer, etc. were supplied by Dalian Meilun Biotech Co., Ltd., etc.
# Liver microsome: human liver microsomes were supplied by Corning.
# Experimental step: the liver microsome incubations were performed in 96-well plates, each incubation system having a volume of 200 μL, in a medium of 0.1 M phosphate buffer (pH 7.4), including liver microsomes at a final concentration of 0.2 mg/mL, 1 μM of the test drug, 3.0 mM MgCl2, 0.01% DMSO, 0.5% acetonitrile, and 2.0 mM NADPH. The incubation system described above without NADPH was pre-incubated at 37° C. for 5 min using a rotary water bath constant temperature oscillator. NADPH was added to initiate the reaction. At 0, 5, 15, 30, and 60 min, 20 μL of the sample was taken out from the incubation system after mixing well and added to 200 μL of acetonitrile containing an internal standard to terminate the reaction. Under the same conditions, 1 μM testosterone was used as a positive control to assess the reliability of the reaction system. For the negative control, phosphate buffer was used instead of NADPH, and all other incubation conditions remained the same. At 60 min, 20 μL of the sample was taken out after mixing well and added to 200 μL of termination solution containing an internal standard to terminate the reaction.
# Sample analysis: After treatments such as precipitated protein extraction with an organic solvent, the incubated sample was analyzed using liquid chromatography-tandem mass spectrometry (LC-MS/MS). The concentrations of the test drug or the positive control drug in the sample were semi-quantified. The concentration in the sample was expressed using the ratio of the analyte peak area to the internal standard peak area.
# Data processing and analysis: A standard curve of the In residual rate of the drug in the incubation system with respect to the incubation time was plotted by using Excel software, linear regression was performed to obtain a slope k, and the half-life T1/2 (min) and the intrinsic clearance CLint (mL/min/kg) were calculated according to the following formula: […]
# [2] = In vivo metabolism (pharmacokinetic) experiment in mice; design: species or system male ICR mice; settings: mouse, male ICR mice; for bioavailability: oral 10 mg/kg vs iv 2.5 mg/kg, read-out: F (%); for AUC(0-inf) / Cmax / half-life: oral 10 mg/kg, plasma; for AUC(0-inf): read-out: AUC0-inf(po); for Cmax: read-out: Cmax (po); for half-life: read-out: T1/2 (po) (converted)
# Protocol: Animal: male ICR mice. The animals were randomly assigned to treatment groups and fasted for 12 h prior to dosing.
# Drug: the compound of the present disclosure was dissolved in a vehicle (5% DMSO+5% Solutol HS15+90% saline). For intravenous (iv) administration, the dose was 2.5 mg/kg with a dosing volume of 5 mL/kg; for oral (po) administration, the dose was 10 mg/kg with a dosing volume of 10 mL/kg body weight. Sample collection and bioanalysis: blood was collected from the orbit of the mice and added into EP tubes containing heparin sodium at 0.083, 0.25, 0.5, 1, 2, 4, 6, and 8 h (n=3 for each time point). Immediately after blood collection, the mice were euthanized by cervical dislocation, and mouse brains were collected at the corresponding time points. All samples were promptly collected, snap-frozen, and stored at −70° C. for later use. Plasma samples were obtained by centrifugation of whole blood. 10 μL of plasma was mixed with 190 μL of internal standard solution (20 ng/ml in acetonitrile containing 0.1% formic acid). After mixing, the samples were centrifuged at 13000 rpm for 10 min, and 120 μL of the supernatant was separately collected. Depending on the sensitivity of the compound, 0.5-10 μL of the supernatant was taken for drug analysis using the appropriate liquid chromatography-tandem mass spectrometry (LC-MS/MS). Each analyte was calibrated and identified using standards. According to brain tissue: the extract (50% acetonitrile/water) at a ratio of 1 g:8 mL was homogenized for 2 min using five 3 mm magnetic beads in an OMNI Bead Ruptor 24 Elite homogenizer at 3.2 m/s and centrifuged at 4° C. and 3000 g for 3 min. 50 μL of the supernatant was mixed with 200 μL of internal standard solution (20 ng/mL in 80% acetonitrile/water). After mixing, the samples were centrifuged at 13,000 rpm for 10 min, and 120 μL of the supernatant was separately collected. Depending on the sensitivity of the compound, 0.5-10 μL of the supernatant was taken for drug analysis using the appropriate LC-MS/MS method. Each analyte was calibrated and identified using standards.
# Data analysis: drug concentrations below the lower limit of quantification (LLOQ) were considered zero. Pharmacokinetic parameters were analyzed using PK Solver with a non-compartmental, bolus injection or extravascular input analysis models. Data points below the LLOQ were excluded to improve the efficacy of t1/2 calculation.
# male C57 mice = assay: Forced swim test; format: in vivo; settings: intraperitoneal injection, test 0.5 h after dosing, motionless time in last 4 min
# Protocol: Drug: the compound of the present disclosure was first uniformly mixed with 5% DMSO and 5% Solutol® HS 15. hysiological saline was then added to make up 90% of the final volume. The mixture was prepared at an appropriate concentration immediately before use.
# Animal: male C57 mice, about 22 g. The animals were randomly divided into a blank control group and test drug groups, 8 animals per group, and mice in each group were administered either the vehicle or the test compound via intraperitoneal injection.
# Experimental steps: the mice were subjected to forced swim test 0.5 h after dosing. The water level in the forced swim device was 45 cm, and the water temperature was 25° C. The mice were placed in an experimental room to adapt to the environment for 1 h before the experiment began. When the experiment began, the mice were placed in the device for 6 min, and the whole process was recorded by a camera. Only the motionless time of the mice in the last 4 min was counted when data were analyzed.
# [3] = DAT stably transfected HEK cells, read-out: DAT (IC50)
# [4] = NET transiently transfected HEK 293T cells, read-out: NET (IC50)
# Sequence of human NET (P23975 whole entry): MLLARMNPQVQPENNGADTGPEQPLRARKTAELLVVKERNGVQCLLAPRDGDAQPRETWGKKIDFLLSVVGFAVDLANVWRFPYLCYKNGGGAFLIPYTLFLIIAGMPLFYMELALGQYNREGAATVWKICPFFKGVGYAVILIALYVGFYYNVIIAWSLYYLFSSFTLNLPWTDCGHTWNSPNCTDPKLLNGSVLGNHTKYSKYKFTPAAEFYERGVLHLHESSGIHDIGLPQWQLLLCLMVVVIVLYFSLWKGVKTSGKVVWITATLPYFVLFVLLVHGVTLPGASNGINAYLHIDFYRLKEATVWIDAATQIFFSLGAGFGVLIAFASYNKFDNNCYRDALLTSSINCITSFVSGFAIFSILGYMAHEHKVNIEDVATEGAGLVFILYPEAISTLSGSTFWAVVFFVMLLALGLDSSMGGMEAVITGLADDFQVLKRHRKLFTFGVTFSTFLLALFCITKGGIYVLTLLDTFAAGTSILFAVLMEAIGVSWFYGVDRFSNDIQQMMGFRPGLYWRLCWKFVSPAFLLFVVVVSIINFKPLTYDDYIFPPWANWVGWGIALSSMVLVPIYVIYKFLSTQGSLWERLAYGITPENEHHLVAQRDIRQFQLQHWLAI
# Sequence of human SERT (P31645 whole entry): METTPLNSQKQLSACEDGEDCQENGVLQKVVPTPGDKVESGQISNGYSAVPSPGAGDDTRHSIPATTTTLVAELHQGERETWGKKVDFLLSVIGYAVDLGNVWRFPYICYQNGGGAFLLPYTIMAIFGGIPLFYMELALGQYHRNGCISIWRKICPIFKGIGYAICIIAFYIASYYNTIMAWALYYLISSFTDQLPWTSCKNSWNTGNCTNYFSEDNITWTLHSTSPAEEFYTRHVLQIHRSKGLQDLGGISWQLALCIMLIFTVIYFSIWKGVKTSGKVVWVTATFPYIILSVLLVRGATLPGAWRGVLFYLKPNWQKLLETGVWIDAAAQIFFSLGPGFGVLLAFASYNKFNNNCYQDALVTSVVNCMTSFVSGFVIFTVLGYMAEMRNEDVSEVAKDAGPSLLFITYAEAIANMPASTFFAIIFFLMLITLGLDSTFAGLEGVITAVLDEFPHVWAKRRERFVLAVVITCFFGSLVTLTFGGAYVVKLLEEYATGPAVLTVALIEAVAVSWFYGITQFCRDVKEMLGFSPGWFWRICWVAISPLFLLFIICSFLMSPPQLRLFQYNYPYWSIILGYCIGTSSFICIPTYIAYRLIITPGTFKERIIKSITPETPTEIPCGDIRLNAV
# Sequence of human DAT (Q01959 whole entry): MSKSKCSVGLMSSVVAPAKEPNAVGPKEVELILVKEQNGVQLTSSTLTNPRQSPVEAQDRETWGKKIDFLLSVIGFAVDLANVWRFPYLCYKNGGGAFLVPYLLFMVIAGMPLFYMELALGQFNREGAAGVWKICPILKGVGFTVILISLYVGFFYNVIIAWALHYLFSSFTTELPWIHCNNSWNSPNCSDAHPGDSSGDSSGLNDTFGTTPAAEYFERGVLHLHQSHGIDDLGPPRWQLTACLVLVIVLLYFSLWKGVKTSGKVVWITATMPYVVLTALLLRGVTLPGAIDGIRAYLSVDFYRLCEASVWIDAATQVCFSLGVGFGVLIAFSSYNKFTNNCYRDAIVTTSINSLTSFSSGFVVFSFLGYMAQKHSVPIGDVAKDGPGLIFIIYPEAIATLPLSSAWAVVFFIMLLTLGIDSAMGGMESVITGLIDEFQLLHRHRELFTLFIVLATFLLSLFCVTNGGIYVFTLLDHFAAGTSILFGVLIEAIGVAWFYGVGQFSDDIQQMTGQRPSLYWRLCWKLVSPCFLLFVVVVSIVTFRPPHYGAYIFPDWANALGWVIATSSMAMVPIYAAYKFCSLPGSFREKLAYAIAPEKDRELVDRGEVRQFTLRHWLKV
SMILES,IC50 (human SERT) [µM],IC50 (human DAT; [3]) [µM],IC50 (human NET) [µM],other results
"Nc1nc2c(s1)CC(N)(c1cccc(F)c1)CC2 (racemic) [rac-A10, 6-(3-fluorophenyl)-4,5,6,7-tetrahydrobenzothiazole-2,6-diamine]",1.3,6.6,4.2,–
"CNC1(c2ccccc2)CCCc2sc(N)nc21 (racemic) [rac-A38, N^4-methyl-4-phenyl-4,5,6,7-tetrahydrobenzothiazole-2,4-diamine]",–,–,–,"half-life at 1 μM ([1]; read-out: Half-life (t1/2, min)): 98 min; CLint scaled at 1 μM ([1]; read-out: Intrinsic clearance (Clint, mL/min/kg)): 41.3 mL/min/kg; bioavailability ([2]; male, ICR, po, 10 mg/kg): 71%; AUC(0-inf) ([2]; male, ICR, po, 10 mg/kg): 1620 ng·h/mL; Cmax ([2]; male, ICR, po, 10 mg/kg): 360 ng/mL; half-life ([2]; male, ICR, po, 10 mg/kg): 1.8 h; Effective dose (male C57 mice): 3 mg/kg"
"Nc1nc2c(s1)CC(c1ccccc1)(N1CCCC1)CC2 (racemic) [rac-A50, 6-Phenyl-6-(Pyrrolidin-1-Yl)-4,5,6,7-Tetrahydrobenzothiazol-2-amine]",1.7,0.1,0.8,bioavailability [2]: 38%; AUC(0-inf) [2]: 321 ng·h/mL; Cmax [2]: 150 ng/mL; half-life [2]: 1.48 h
"Nc1nc2c(s1)CC(c1cccc(Cl)c1)(N1CCCC1)CC2 (racemic) [rac-A51, 6-(3-chlorophenyl)-6-(pyrrolidin-1-yl)-4,5,6,7-tetrahydrobenzothiazol-2-amine]",1.2,0.2,0.3,–
"NC1(c2ccccc2)CCc2[nH]ncc2C1 (racemic) [rac-A65, 5-phenyl-4,5,6,7-tetrahydro-1H-indazol-5-amine]",1.9,–,7,–
"Nc1nc2c(s1)CC(NCC1CC1)(c1ccccc1)CC2 (racemic) [rac-A67, 6-phenyl-N^6-(cyclopropylmethyl)-4,5,6,7-tetrahydrobenzothiazole-2,6-diamine]",–,–,3,–
"CNC1(c2ccc(C(F)(F)F)cc2)CCc2nc(N)sc2C1 (racemic) [rac-A96, 6-(4-trifluoromethylphenyl)-N^6-methyl-4,5,6,7-tetrahydrobenzothiazole-2,6-diamine hydrobromide]",–,–,14,–
"CN(C)C1(c2ccccc2)CCc2nc(N)sc2C1 (racemic) [rac-A114, N^6,N^6-dimethyl-6-phenyl-4,5,6,7-tetrahydrobenzothiazole-2,6-diamine]",1,1,3.5,–
"c1ccc2cc([C@]34CNC[C@H]3C4)ccc2c1 [Centanafadine, centanafadine, reference compound]",–,–,0.03,IC50 (human DAT): 0.08 µM
c1ccc([C@@]2(N3CCCC3)CCc3[nH]ncc3C2)cc1 [R-A12],–,2,–,IC50 (human NET; [4]): 3.8 µM
Nc1nc2c(s1)C[C@](c1ccccc1)(N1CCCC1)CC2 [R-A50],–,–,–,IC50 (human NET; [4]): 0.2 µM
